# Measured values: US5994349A, “3-carboalkoxy-2, 3-dihydro-1H-phenothiazin-4[10H]-one derivatives” (priority 1997, dated 1999)
# Where two headings read alike, the source gives them in different places.
# Legend:
# [1] = test system: maximal electroshock seizures; assay: maximal electroshock (MES) test, Phase I, mice ip; type: in vivo, male Carworth Farms No. 1 (CF1) mice; details: for responders at 10 mg/kg / responders at 30 mg/kg / responders at 100 mg/kg / responders at 300 mg/kg: Mus musculus
# Experimental: (§1) Initial evaluations for anticonvulsant activity include phases I, VIA and VIB test procedures. These tests are performed intraperitoneally in male Carworth Farms No. 1 (CF1) mice, weighing 18-25 g (Phase I) or orally in male Sprague-Dawley rats, weighing 100-150 g (Phases VIA and VIB). The evaluation is based on three tests: maximal electroshock (MES), subcutaneous (scMet), and the rotorod test for neurological toxicity (Tox). (a) Anticonvulsant Screening Project, Antiepileptic Drug Development Program, National Institutes of Health, DHEW Publ (NIH)(U.S.) 1978, NIH 78-1093. (b) Porter, R. J.; Cereghino, J. J.; Gladding, G. D.; Hessie, B. J.; Kupferberg, H. J.; Scoville, B.; White, B. G. Antiepileptic drug development program. Cleveland Clin. Q. 1984, 51, 293-305. (c) Krall, R. L.; Penry, J. K.; White, B. G.; Kupferberg, H. J.; Swinyard, E. A. Antiepileptic drug development: II. Anticonvulsant drug screening. Epilepsia 1978, 19, 400-428. In the MES test, maximal electroshock seizures are elicited with a 60- cycle alternating current of 50 mA intensity (5-7 times that necessary to elicit minimal electroshock seizures) delivered via corneal electrodes for 0.2 seconds. A drop of 0.9% saline is placed on the eye prior to application of the electrodes in order to […]. Abolition of the hind limb tonic extension component of the seizure is defined as protection and results are expressed as the number of animals protected/the number of animals tested.
# In phase I, compounds are suspended in 0.5% aqueous methylcellulose and are administered intraperitoneally at three dosage levels (30, 100, and 300 mg/kg) with anticonvulsant activity and motor impairment noted 30 min and 4 h (and in some cases 2 h and 6 h) after administration.
# [2] = test system: maximal electroshock seizures; assay: maximal electroshock (MES) test, oral rat (Phase VIA/VIB); type: in vivo, male Sprague-Dawley rats; details: 30 mg/kg
# Experimental: as §1
# (§2) To differentiate the results between different rodent species, 4b (X=H), as well as 4a (R=H), 4e (R=Cl), 4f (R=Cl) and 4i (R=CH3) are subsequently evaluated for oral (po) activity in the rat (Phase VIA or VIB).
# neurotoxicity (rotorod) [3] = assay: rotorod toxicity, oral rat (Phase VIA/VIB); type: in vivo, male Sprague-Dawley rats; details: rat oral, 30 mg/kg
# Experimental: as §1
# The rotorod test is used to evaluate neurotoxicity. The animal is placed on a 1 inch diameter knurled plastic rod rotating at 6 rpm. Normal mice can remain on a rod rotating at this speed indefinitely.
# as §2
# [4] = test system: pentylenetetrazol seizures; assay: subcutaneous pentylenetetrazol (scMet) test, Phase I, mice ip; type: in vivo, male Carworth Farms No. 1 (CF1) mice; details: for responders at 10 mg/kg / responders at 30 mg/kg / responders at 100 mg/kg / responders at 300 mg/kg: Mus musculus
# Experimental: as §1
# In the sc MET test, eighty-five mg/kg of pentylenetetrazol, which induces seizures in more than 95% of mice, is administered as a 0.5% solution subcutaneously in the posterior midline. The animal is observed for 30 minutes. Failure to observe even a threshold seizure (a single episode of clonic spasms of at least 5 seconds duration) is defined as protection and the results are expressed as the number of animals protected/ the number of animals tested. […]
# neurotoxicity (rotorod) [5] = assay: rotorod test for neurological toxicity (Tox), Phase I, mice ip; type: in vivo, male Carworth Farms No. 1 (CF1) mice
# Experimental: as §1
# The rotorod test is used to evaluate neurotoxicity. The animal is placed on a 1 inch diameter knurled plastic rod rotating at 6 rpm. Normal mice can remain on a rod rotating at this speed indefinitely. […]
# [6] = test system: threshold tonic extension electroshock seizures; assay: Threshold Tonic Extension (TTE) test, mice ip; type: in vivo; details: 100 mg/kg
# Description: (§3) Piredda, S. G.; Woodhead, J. H.; Swinyard, E. A. Effect of stimulus intensity on the profile of anticonvulsant activity of phenytoin, ethosuximide and valproate. J. Pharmacol. Exp. Ther. 1985, 232, 741-745. The TTE test is a clinically nonselective, electroconvulsive seizure model that identifies compounds that raise seizure threshold as well as those that prevent seizure spread. […] The TTE test is similar to the MES screen but uses a lower level of electrical current. The lower current makes the TTE test more sensitive, but less discriminate than the MES screen. This ability makes the model attractive because it allows for the identification of compounds that may have been omitted by the standard identification screen. […] These TTE active compounds may represent compounds acting by novel mechanisms.
# Twenty mice are pretreated with 100 mg/kg of the test compound. […] This stimulation produces a TTE seizure in the animals. For each time interval, results are expressed as a ratio of the number of animals protected over the number of animals tested.
# [7] = test system: maximal electroshock seizures; assay: MES confirmation of TTE test, mice ip; type: in vivo; details: 100 mg/kg
# Experimental: as §1, §3
# Twenty mice are pretreated with 100 mg/kg of the test compound. At several time intervals (15 min, 30 min, 1 h, 2 h and 4 h) post treatment with the test compound, four mice at each time point are challenged with 12.5 mA of electrical current for 0.2 sec via corneal electrodes. This stimulation produces a TTE seizure in the animals. For each time interval, results are expressed as a ratio of the number of animals protected over the number of animals tested.
# [8] = 4 h, read-out: MES 4 h (converted)
# [9] = 0.5 h, 30 min, read-out: MES 30 min (converted)
# [10] = 0.5 h, mice ip, 30 min, read-out: scMet 30 min
# [11] = mice ip, 4 h, read-out: scMet 4 h
# [12] = 0.5 h, mice ip, 30 min, read-out: scMet 30 min (converted)
# [13] = mice ip, 4 h, read-out: scMet 4 h (converted)
smiles,measurement,setting,value
"COC(=O)[C@@H]1C(=O)C2=C(C[C@H]1C)Nc1ccc(Br)cc1S2 (relative stereo) [Compound 4j, 7-Bromo-3-carbomethoxy-2-methyl-2,3-dihydro-1H-phenothiazin-4[10H]-one]",responders at 10 mg/kg,"[1]; 4 h, read-out: MES 4 h",0%
same,responders at 30 mg/kg,"[1]; 4 h, read-out: MES 4 h",0%
same,responders at 100 mg/kg,[1]; [8],0%
same,responders at 10 mg/kg,"[1]; 0.5 h, 30 min, read-out: MES 30 min",0%
same,responders at 30 mg/kg,[1]; [9],33.3%
same,responders at 100 mg/kg,[1]; [9],100%
same,responders at 30 mg/kg,[2]; 0.25 h,50%
same,responders at 30 mg/kg,[2]; 1.00 h,50%
same,responders at 30 mg/kg,"[2]; 0.5 h, 0.50 h",75%
same,Tox,neurotoxicity (rotorod) [3]; 0.25 h,0/4
same,Tox,neurotoxicity (rotorod) [3]; 0.50 h,0/4
same,Tox,neurotoxicity (rotorod) [3]; 1.00 h,0/2
same,responders at 10 mg/kg,"[4]; 0.5 h, mice ip, 10 mg/kg, 30 min, read-out: scMet 30 min",0%
same,responders at 30 mg/kg,[4]; [10],0%
same,responders at 100 mg/kg,[4]; [10],0%
same,responders at 10 mg/kg,"[4]; mice ip, 10 mg/kg, 4 h, read-out: scMet 4 h",0%
same,responders at 30 mg/kg,[4]; [11],0%
same,responders at 100 mg/kg,[4]; [11],0%
same,observation in scMet test (footnote g),"[4]; mice ip, 10 and 30 mg/kg, 30 min",Continuous seizure activity
same,observation in scMet test (footnote h),"[4]; mouse, in vivo, ip, 10 mg/kg",Death following continuous seizure
same,Tox 30 min,neurotoxicity (rotorod) [5]; 10 mg/kg,0/4
same,Tox 4 h,neurotoxicity (rotorod) [5]; 10 mg/kg,0/2
same,Tox 30 min,neurotoxicity (rotorod) [5]; 30 mg/kg,0/8
same,Tox 4 h,neurotoxicity (rotorod) [5]; 30 mg/kg,0/4
same,Tox 30 min,neurotoxicity (rotorod) [5]; 100 mg/kg,0/4
same,Tox 4 h,neurotoxicity (rotorod) [5]; 100 mg/kg,0/2
"CC1CC(=O)C2=C(C1)Nc1ccccc1S2 (stereo not shown) [Compound 4d, 2-Methyl-2,3-dihydro-1H-phenothiazin-4[10H] -one]",responders at 30 mg/kg,"[1]; 4 h, read-out: MES 4 h",0%
same,responders at 100 mg/kg,[1]; [8],0%
same,responders at 300 mg/kg,[1]; [8],0%
same,responders at 30 mg/kg,[1]; [9],0%
same,responders at 100 mg/kg,[1]; [9],0%
same,responders at 300 mg/kg,[1]; [9],0%
same,phase I activity,"[1]; Phase I, in words",inactive
same,TTE Result,[6]; 0.25 h,1/4
same,TTE Result (repeat test),[6]; 0.25 h,2/4
same,TTE Result,[6]; 0.50 h,3/4
same,TTE Result (repeat test),[6]; 0.50 h,2/4
same,TTE Result,[6]; 1.00 h,1/4
same,TTE Result (repeat test),[6]; 1.00 h,0/4
same,TTE Result,[6]; 2.00 h,3/4
same,TTE Result (repeat test),[6]; 2.00 h,0/4
same,TTE Result,[6]; 4.00 h,0/4
same,TTE Result (repeat test),[6]; 4.00 h,0/4
same,TTE Result (repeat test),[6]; 6.00 h,1/4
same,responders at 30 mg/kg,[4]; [10],0%
same,responders at 100 mg/kg,[4]; [10],0%
same,responders at 300 mg/kg,[4]; [12],0%
same,responders at 30 mg/kg,[4]; [11],0%
same,responders at 100 mg/kg,[4]; [11],0%
same,responders at 300 mg/kg,[4]; [13],0%
same,MES confirmation,[7]; 0.25 h,0/4
same,MES confirmation (repeat test),[7]; 0.25 h,1/4
same,MES confirmation,[7]; 0.50 h,3/4
same,MES confirmation (repeat test),[7]; 0.50 h,1/4
same,MES confirmation,[7]; 1.00 h,1/4
same,MES confirmation,[7]; 2.00 h,0/4
same,Tox 30 min,neurotoxicity (rotorod) [5]; 30 mg/kg,0/4
same,Tox 4 h,neurotoxicity (rotorod) [5]; 30 mg/kg,0/2
same,Tox 30 min,neurotoxicity (rotorod) [5]; 100 mg/kg,0/8
same,Tox 4 h,neurotoxicity (rotorod) [5]; 100 mg/kg,0/4
same,Tox 30 min,neurotoxicity (rotorod) [5]; 300 mg/kg,0/4
same,Tox 4 h,neurotoxicity (rotorod) [5]; 300 mg/kg,0/2
"COC(=O)[C@@H]1C(=O)C2=C(C[C@H]1C)Nc1ccc(Cl)cc1S2 (relative stereo) [Compound 4e, 7-Chloro-3-carbomethoxy-2-methyl-2,3-dihydro-1H-phenothiazin-4[10H] -one]",responders at 30 mg/kg,"[1]; 4 h, read-out: MES 4 h",0%
same,responders at 100 mg/kg,[1]; [8],66.7%
same,responders at 300 mg/kg,[1]; [8],100%
same,responders at 30 mg/kg,[1]; [9],0%
same,responders at 100 mg/kg,[1]; [9],0%
same,responders at 300 mg/kg,[1]; [9],0%
same,responders at 30 mg/kg,[2]; 0.25 h,0%
same,responders at 30 mg/kg,[2]; 1.00 h,75%
same,responders at 30 mg/kg,[2]; 2.00 h,75%
same,responders at 30 mg/kg,[2]; 4.00 h,50%
same,responders at 30 mg/kg,"[2]; 0.5 h, 0.50 h",0%
same,Tox,neurotoxicity (rotorod) [3]; 0.25 h,0/4
same,Tox,neurotoxicity (rotorod) [3]; 0.50 h,0/4
same,Tox,neurotoxicity (rotorod) [3]; 1.00 h,0/4
same,Tox,neurotoxicity (rotorod) [3]; 2.00 h,0/4
same,Tox,neurotoxicity (rotorod) [3]; 4.00 h,0/4
same,responders at 30 mg/kg,[4]; [10],0%
same,responders at 100 mg/kg,[4]; [10],0%
same,responders at 300 mg/kg,[4]; [12],0%
same,responders at 30 mg/kg,[4]; [11],0%
same,responders at 100 mg/kg,[4]; [11],0%
same,responders at 300 mg/kg,[4]; [13],0%
same,Tox 30 min,neurotoxicity (rotorod) [5]; 30 mg/kg,0/4
same,Tox 4 h,neurotoxicity (rotorod) [5]; 30 mg/kg,0/2
same,Tox 30 min,neurotoxicity (rotorod) [5]; 100 mg/kg,0/8
same,Tox 4 h,neurotoxicity (rotorod) [5]; 100 mg/kg,0/4
same,Tox 30 min,neurotoxicity (rotorod) [5]; 300 mg/kg,0/4
same,Tox 4 h,neurotoxicity (rotorod) [5]; 300 mg/kg,0/2
"CCOC(=O)[C@@H]1C(=O)C2=C(C[C@H]1C)Nc1ccc(Cl)cc1S2 (relative stereo) [Compound 4f, 7-Chloro-3-carbethoxy-2-methyl-2,3-dihydro-1H-phenothiazin-4[10H] -one]",responders at 30 mg/kg,"[1]; 4 h, read-out: MES 4 h",0%
same,responders at 100 mg/kg,[1]; [8],33.3%
same,responders at 300 mg/kg,[1]; [8],100%
same,responders at 30 mg/kg,[1]; [9],0%
same,responders at 100 mg/kg,[1]; [9],66.7%
same,responders at 300 mg/kg,[1]; [9],100%
same,responders at 30 mg/kg,[2]; 0.25 h,0%
same,responders at 30 mg/kg,[2]; 1.00 h,75%
same,responders at 30 mg/kg,[2]; 2.00 h,75%
same,responders at 30 mg/kg,[2]; 4.00 h,75%
same,responders at 30 mg/kg,"[2]; 0.5 h, 0.50 h",25%
same,Tox,neurotoxicity (rotorod) [3]; 0.25 h,0/4
same,Tox,neurotoxicity (rotorod) [3]; 0.50 h,0/4
same,Tox,neurotoxicity (rotorod) [3]; 1.00 h,0/4
same,Tox,neurotoxicity (rotorod) [3]; 2.00 h,0/4
same,Tox,neurotoxicity (rotorod) [3]; 4.00 h,0/4
same,responders at 30 mg/kg,[4]; [10],0%
same,responders at 100 mg/kg,[4]; [10],0%
same,responders at 300 mg/kg,[4]; [12],0%
same,responders at 30 mg/kg,[4]; [11],0%
same,responders at 100 mg/kg,[4]; [11],0%
same,responders at 300 mg/kg,[4]; [13],40%
same,Tox 30 min,neurotoxicity (rotorod) [5]; 30 mg/kg,0/4
same,Tox 4 h,neurotoxicity (rotorod) [5]; 30 mg/kg,0/2
same,Tox 30 min,neurotoxicity (rotorod) [5]; 100 mg/kg,0/8
same,Tox 4 h,neurotoxicity (rotorod) [5]; 100 mg/kg,0/4
same,Tox 30 min,neurotoxicity (rotorod) [5]; 300 mg/kg,0/4
same,Tox 4 h,neurotoxicity (rotorod) [5]; 300 mg/kg,0/2
